From patent US20020051978A1, “Methods and compositions for the identification, assessment, prevention and therapy of human cancers” (priority 2000, published 2002)
Where two headings read alike, the source gives them in different places.

Experiments:
[1] = test system: tumor; conditions: animal models; cited from earlier work
[2] = test system: 60 cancer cell lines (NCI 60 cancer cell line series); assay: NCI-DTP in vitro cancer screen, sulforhodamine B (SRB) growth inhibition, 48 hour exposure; type: cell-based, human; set-up: key to sensitivity class Ovarian OVCAR-8 CL6005 / sensitivity class Ovarian SK-OV-3 CL6011 / sensitivity class Prostate DU-145 CL11003 / sensitivity class NSCLC NCI-H522 CL1003 / sensitivity class Ovarian IGROV1 CL6010 / sensitivity class Ovarian OVCAR-4 CL6002 / sensitivity class Prostate PC-3(I) CL11001 / sensitivity class Renal A498 CL9013 / sensitivity class Renal SN12C CL9008: sensitivity class: 1 = Low, 2 = Medium, 3 = High
In short: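 Values come from the NCI-DTP screen database: -log GI50, the concentration giving 50% growth inhibition, derived from SRB cell-mass dose-response curves. Each line seeded at its own density, treated day 1 at five ten-fold-spaced doses in duplicate wells, stained after 48 h.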

[3] = test system: 60 cancer cell lines (NCI 60 cancer cell line series); conditions: cited from earlier work

## CC(=O)O[C@@]12CO[C@@H]1C[C@H](O)[C@@]1(C)C(=O)[C@H](O)C3=C(C)[C@@H](OC(=O)[C@H](O)[C@@H](NC(=O)OC(C)(C)C)c4ccccc4)C[C@@](O)([C@@H](OC(=O)c4ccccc4)[C@H]21)C3(C)C [Taxotere, docetaxel]
[1]
  anti-tumor activity: good anti-tumor activity

## N.N.[Cl][Pt][Cl] [cisplatin, cis-Diamminedichloroplatinum (II), reference compound]
[2]; Breast BT-549 (CL5013)
  classification of cell line as Low(1), Medium(2) or High(3) sensitivity to compound: 2
[2]; Breast HS-578T CL5006
  classification of cell line as Low(1), Medium(2) or High(3) sensitivity to compound: 2
[2]; Breast MCF7/ADRr (CL5002)
  classification of cell line as Low(1), Medium(2) or High(3) sensitivity to compound: 2
[2]; Breast MDA-MB-231 CL5005
  classification of cell line as Low(1), Medium(2) or High(3) sensitivity to compound: 1
[2]; Breast MDA-N CL5012
  classification of cell line as Low(1), Medium(2) or High(3) sensitivity to compound: 2
[2]; Breast T-47D (CL5014)
  classification of cell line as Low(1), Medium(2) or High(3) sensitivity to compound: 1
[2]; CNS SF-268 CL12014
  classification of cell line as Low(1), Medium(2) or High(3) sensitivity to compound: 3
[2]; CNS SF-539 CL12016
  classification of cell line as Low(1), Medium(2) or High(3) sensitivity to compound: 2
[2]; CNS SNB-75(I) CL12005
  classification of cell line as Low(1), Medium(2) or High(3) sensitivity to compound: 2
[2]; CNS U251(I) CL12009
  classification of cell line as Low(1), Medium(2) or High(3) sensitivity to compound: 2
[2]; Colon COLO-250 CL4010
  classification of cell line as Low(1), Medium(2) or High(3) sensitivity to compound: 1
[2]; Colon HCC-2998 (CL4002)
  classification of cell line as Low(1), Medium(2) or High(3) sensitivity to compound: 2
[2]; Colon HCT-15 CL4015
  classification of cell line as Low(1), Medium(2) or High(3) sensitivity to compound: 1
[2]; Colon HT29(I) CL4001
  classification of cell line as Low(1), Medium(2) or High(3) sensitivity to compound: 1
[2]; Colon SW-620 (CL4009)
  classification of cell line as Low(1), Medium(2) or High(3) sensitivity to compound: 2
[2]; Leukemia HL-60(I) (CL7008)
  classification of cell line as Low(1), Medium(2) or High(3) sensitivity to compound: 3
[2]; Leukemia K562(I) CL7005
  classification of cell line as Low(1), Medium(2) or High(3) sensitivity to compound: 2
[2]; Leukemia RPMI-8226(I) (CL7010)
  classification of cell line as Low(1), Medium(2) or High(3) sensitivity to compound: 2
[2]; Melanoma LOX IMVI CL10001
  classification of cell line as Low(1), Medium(2) or High(3) sensitivity to compound: 3
[2]; Melanoma M14 (CL10014)
  classification of cell line as Low(1), Medium(2) or High(3) sensitivity to compound: 2
[2]; cell line NSCLC NCI-H23(I), CL1001
  sensitivity class NSCLC NCI-H23(I) CL1001: 3
[2]; cell line NSCLC NCI-H460, CL1021
  sensitivity class NSCLC NCI-H460 CL1021: 3
[2]; cell line NSCLC NCI-H522, CL1003
  sensitivity class NSCLC NCI-H522 CL1003: 2
[2]; cell line Ovarian IGROV1, CL6010
  sensitivity class Ovarian IGROV1 CL6010: 2
[2]; cell line Ovarian OVCAR-4, CL6002
  sensitivity class Ovarian OVCAR-4 CL6002: 2
[2]; cell line Ovarian OVCAR-5, CL6003
  sensitivity class Ovarian OVCAR-5 CL6003: 2
[2]; cell line Ovarian OVCAR-8, CL6005
  sensitivity class Ovarian OVCAR-8 CL6005: 2
[2]; cell line Prostate DU-145, CL11003
  sensitivity class Prostate DU-145 CL11003: 2
[2]; cell line Renal A498, CL9013
  sensitivity class Renal A498 CL9013: 1
[2]; cell line Renal RXF-393, CL9016
  sensitivity class Renal RXF-393 CL9016: 2
[2]; cell line Renal UO-31, CL9004
  sensitivity class Renal UO-31 CL9004: 2
[3]; Breast MCF7(I) (CL5001)
  -Log (GI50): 5.5
[3]; Ovarian SK-OV-3 CL6011
  -Log (GI50): 5.2
